From patent US10111890B2, “9-aminomethyl minocycline compounds and uses thereof” (Paratek Pharmaceuticals, Inc., priority 2016, dated 2018)
Where “and” joins values, the source holds several entries; their conditions need not be identical. Identical values can stand only once. Like-named read-outs stand apart in the source and are kept apart here.

Legend:
[1] = Phase 1 multiple oral dose study: urine pharmacokinetics; type: in vivo, human; settings: human
Experimental: Urine samples were only collected from a subset of subjects because analysis of urine PK was added by an amendment to the study protocol after the study was already underway. […] Additional parameters […] Ae0-24 were also calculated.

[2] = system: ABSSSI known or suspected to be due to Gram-positive pathogens; assay: Phase 3 oral omadacycline vs oral linezolid in ABSSSI: Early Clinical Response 48-72 hours after first dose; type: in vivo, human; settings: for Early Clinical Success, %: micro-mITT, % of N1; for Difference (95% CI) in Early Clinical Success rate: omadacycline minus linezolid
[3] = Prior Phase 1 studies: bioavailability / bioequivalence of oral tablet formulation; parameters: species or system human; settings: in vivo; for bioavailability: human
[4] = 48-72 hours after first dose, mITT population
[5] = Cellulitis/erysipelas, actual type, 48-72 hours, mITT
[6] = Cellulitis/erysipelas, as randomized, 48-72 hours, mITT
[7] = Major Abscess, actual type, 48-72 hours, mITT
[8] = Major Abscess, as randomized, 48-72 hours, mITT
[9] = Wound Infection, actual type, 48-72 hours, mITT
[10] = Wound Infection, as randomized, 48-72 hours, mITT

Compound: CN(C)c1cc(CNCC(C)(C)C)c(O)c2c1C[C@H]1C[C@H]3[C@H](N(C)C)C(O)=C(C(N)=O)C(=O)[C@@]3(O)C(O)=C1C2=O [Omadacycline, 9-[(2,2-dimethyl-propylamino)-methyl]-minocycline]
- CL renal ([1]; in vivo, 600 mg, Day 1 (n = 1), read-out: CLr, Mean (CV) (converted)): 69.5 mL/min
- CL renal ([1]; in vivo, 600 mg, Day 5 (n = 4), read-out: CLr, Mean (CV) (converted)): 50.8 mL/min
- CL renal ([1]; urine, oral, all omadacycline dose groups, Day 1, read-out: Renal clearance (CLr)): 46.7 to 70 mL/min
- CL renal ([1]; urine, oral, all omadacycline dose groups, Day 5, read-out: Renal clearance (CLr)): 40 to 55 mL/min
- Difference (95% CI) in Early Clinical Success rate, omadacycline minus linezolid [2, 4]: 5.0% and 5.0 (−0.2, 10.3) %
- Early Clinical Response: Clinical Failure [2, 4]: 26 (7.2) n (%)
- Early Clinical Response: Clinical Failure or Indeterminate [2, 4]: 45 (12.5) n (%)
- Early Clinical Response: Indeterminate [2, 4]: 19 (5.3) n (%)
- Early Clinical Response: Clinical Success ([2]; 48-72 hours after first dose, mITT population (N = 360 per arm)): 315 (87.5) n (%)
- Early Clinical Response: Clinical Success ([2]; Cellulitis/erysipelas, actual type of infection, 48-72 hours, mITT): 68 (79.1) n (%)
- Early Clinical Response: Clinical Failure [2, 5]: 8 (9.3) n (%)
- Early Clinical Response: Clinical Failure or Indeterminate [2, 5]: 18 (20.9) n (%)
- Early Clinical Response: Indeterminate [2, 5]: 10 (11.6) n (%)
- Early Clinical Response: Clinical Failure [2, 6]: 8 (9.8) n (%)
- Early Clinical Response: Clinical Failure or Indeterminate [2, 6]: 17 (20.7) n (%)
- Early Clinical Response: Indeterminate [2, 6]: 9 (11.0) n (%)
- Early Clinical Response: Clinical Success ([2]; Cellulitis/erysipelas, type of infection as randomized, 48-72 hours, mITT): 65 (79.3) n (%)
- Early Clinical Response: Clinical Success ([2]; Major Abscess, actual type of infection, 48-72 hours, mITT): 60 (93.8) n (%)
- Early Clinical Response: Clinical Failure [2, 7]: 1 (1.6) n (%)
- Early Clinical Response: Clinical Failure or Indeterminate [2, 7]: 4 (6.3) n (%)
- Early Clinical Response: Indeterminate [2, 7]: 3 (4.7) n (%)
- Early Clinical Response: Clinical Failure [2, 8]: 1 (1.6) n (%)
- Early Clinical Response: Clinical Failure or Indeterminate [2, 8]: 4 (6.3) n (%)
- Early Clinical Response: Indeterminate [2, 8]: 3 (4.7) n (%)
- Early Clinical Response: Clinical Success ([2]; Major Abscess, type of infection as randomized, 48-72 hours, mITT): 60 (93.8) n (%)
- Early Clinical Response: Clinical Success ([2]; Wound Infection, actual type of infection, 48-72 hours, mITT): 187 (89.0) n (%)
- Early Clinical Response: Clinical Failure [2, 9]: 17 (8.1) n (%)
- Early Clinical Response: Clinical Failure or Indeterminate [2, 9]: 23 (11.0) n (%)
- Early Clinical Response: Indeterminate [2, 9]: 6 (2.9) n (%)
- Early Clinical Response: Clinical Failure [2, 10]: 17 (7.9) n (%)
- Early Clinical Response: Clinical Failure or Indeterminate [2, 10]: 24 (11.2) n (%)
- Early Clinical Response: Indeterminate [2, 10]: 7 (3.3) n (%)
- Early Clinical Response: Clinical Success ([2]; Wound Infection, type of infection as randomized, 48-72 hours, mITT): 190 (88.8) n (%)
- Early Clinical Success, % ([2]; baseline pathogen Clostridium perfringens, 48-72 hours after first dose): (100.0) %
- Early Clinical Success, % ([2]; baseline pathogen Enterobacter cloacae, 48-72 hours after first dose): (100.0) %
- Early Clinical Success, % ([2]; baseline pathogen Enterococcus faecalis VSE, 48-72 hours after first dose): (85.7) %
- Early Clinical Success, % ([2]; baseline pathogen Enterococcus faecalis, 48-72 hours after first dose): (87.5) %
- Early Clinical Success, % ([2]; baseline pathogen Enterococcus faecium VSE, 48-72 hours after first dose): (100.0) %
- Early Clinical Success, % ([2]; baseline pathogen Enterococcus faecium, 48-72 hours after first dose): (100.0) %
- Early Clinical Success, % ([2]; baseline pathogen Escherichia coli, 48-72 hours after first dose): (100.0) %
- Early Clinical Success, % ([2]; baseline pathogen Finegoldia magna, 48-72 hours after first dose): (66.7) %
- Early Clinical Success, % ([2]; baseline pathogen Klebsiella pneumoniae, 48-72 hours after first dose): (80.0) %
- Early Clinical Success, % ([2]; baseline pathogen MRSA, 48-72 hours after first dose): (93.3) %
- Early Clinical Success, % ([2]; baseline pathogen MSSA, 48-72 hours after first dose): (84.2) %
- Early Clinical Success, % ([2]; baseline pathogen Prevotella denticola, 48-72 hours after first dose): (100.0) %
- Early Clinical Success, % ([2]; baseline pathogen Prevotella melaninogenica, 48-72 hours after first dose): (100.0) %
- Early Clinical Success, % ([2]; baseline pathogen Staphylococcus aureus, 48-72 hours after first dose): (88.2) %
- Early Clinical Success, % ([2]; baseline pathogen Staphylococcus lugdunensis, 48-72 hours after first dose): (80.0) %
- Early Clinical Success, % ([2]; baseline pathogen Streptococcus agalactiae, 48-72 hours after first dose): (50.0) %
- Early Clinical Success, % ([2]; baseline pathogen Streptococcus anginosus group, 48-72 hours after first dose): (94.7) %
- Early Clinical Success, % ([2]; baseline pathogen Streptococcus anginosus, 48-72 hours after first dose): (100.0) %
- Early Clinical Success, % ([2]; baseline pathogen Streptococcus constellatus, 48-72 hours after first dose): (88.9) %
- Early Clinical Success, % ([2]; baseline pathogen Streptococcus intermedius, 48-72 hours after first dose): (91.3) %
- Early Clinical Success, % ([2]; baseline pathogen Streptococcus mitis, 48-72 hours after first dose): (100.0) %
- Early Clinical Success, % ([2]; baseline pathogen Streptococcus pyogenes, 48-72 hours after first dose): (82.8) %
- Early Clinical Success, % ([2]; baseline pathogen Streptococcus viridans group, 48-72 hours after first dose): (100.0) %
- Difference (95% CI) in Early Clinical Success rate ([2]; Cellulitis/erysipelas, actual type, mITT): 1.7 (−10.8, 14.3)
- Difference (95% CI) in Early Clinical Success rate ([2]; Cellulitis/erysipelas, as randomized, mITT): 1.9 (−10.8, 14.5)
- Difference (95% CI) in Early Clinical Success rate ([2]; Major Abscess, actual type, mITT): 5.0 (−5.4, 16.2)
- Difference (95% CI) in Early Clinical Success rate ([2]; Major Abscess, as randomized, mITT): 5.0 (−5.4, 16.2)
- Difference (95% CI) in Early Clinical Success rate ([2]; Wound Infection, actual type, mITT): 6.3 (−0.3, 13.1)
- Difference (95% CI) in Early Clinical Success rate ([2]; Wound Infection, as randomized, mITT): 6.1 (−0.6, 12.8)
- bioavailability [3]: 35%
- bioavailability ([3]; phase 3 tablet formulation (tosylate salt), fasting conditions, read-out: absolute bioavailability): 34.5%
- bioequivalence of oral and i.v. dose (based on serum AUC) [3]: bioequivalent
